Reference: publication PMC9954146, “Anti-Leukaemic Activity of Rilpivirine Is Mediated by Aurora A Kinase Inhibition” (Cancers, 2023)

What was measured:
Test in all cases: Kinase panel
Format in all cases: biochemical
Details in all cases: read-out: % Residual Activity
[1] = target: T1, ALK1(h) (Homo sapiens, UniProt P37023)
T1 construct: purchased Eurofins (KinaseProfiler)
In short: (§1)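 Cheng–Prusoff conversion of IC50 to Ki; IC50s from radioisotope-based assays at Km(ATP). Kinome-wide rilpivirine profiling.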

[2] = target: T2, Axl(h) (Homo sapiens, UniProt P30530)
T2 construct: purchased Eurofins (KinaseProfiler)
In short: as §1

[3] = target: T3, BIKe(h) (Homo sapiens, UniProt Q9NSY1)
T3 construct: purchased Eurofins (KinaseProfiler)
In short: as §1

[4] = target: T4, CDK2/cyclinE(h) (Homo sapiens, UniProt P24941)
T4 construct: purchased Eurofins (KinaseProfiler)
In short: as §1

[5] = target: T5, CDKL3(h) (Homo sapiens, UniProt Q8IVW4)
T5 construct: purchased Eurofins (KinaseProfiler)
In short: as §1

[6] = target: T6, CHK2(I157T)(h) (Homo sapiens, UniProt O96017, I157T)
T6 construct: purchased Eurofins (KinaseProfiler)
In short: as §1

[7] = target: T7, CHK2(h) (Homo sapiens, UniProt O96017)
T7 construct: purchased Eurofins (KinaseProfiler)
In short: as §1

[8] = target: T8, CLK4(h) (Homo sapiens, UniProt Q9HAZ1)
T8 construct: purchased Eurofins (KinaseProfiler)
In short: as §1

[9] = target: T9, CaMKI(h) (Homo sapiens, UniProt Q14012)
T9 construct: purchased Eurofins (KinaseProfiler)
In short: as §1

[10] = target: T10, CaMKIß(h) (Homo sapiens, UniProt Q6P2M8)
T10 construct: purchased Eurofins (KinaseProfiler)
In short: as §1

[11] = target: T11, CaMKIδ(h) (Homo sapiens, UniProt Q8IU85)
T11 construct: purchased Eurofins (KinaseProfiler)
In short: as §1

[12] = target: T12, Cdc7/cyclinB1(h) (Homo sapiens, UniProt O00311)
T12 construct: purchased Eurofins (KinaseProfiler)
In short: as §1

[13] = target: T13, DAPK1(h) (Homo sapiens, UniProt P53355)
T13 construct: purchased Eurofins (KinaseProfiler)
In short: as §1

[14] = target: T14, DAPK2(h) (Homo sapiens, UniProt Q9UIK4)
T14 construct: purchased Eurofins (KinaseProfiler)
In short: as §1

[15] = target: T15, DYRK3(h) (Homo sapiens, UniProt O43781)
T15 construct: purchased Eurofins (KinaseProfiler)
In short: as §1

[16] = target: T16, ErbB4(h) (Homo sapiens, UniProt Q15303)
T16 construct: purchased Eurofins (KinaseProfiler)
In short: as §1

[17] = target: T17, HIPK1(h) (Homo sapiens, UniProt Q86Z02)
T17 construct: purchased Eurofins (KinaseProfiler)
In short: as §1

[18] = target: T18, IGF-1R(h) (Homo sapiens, UniProt P08069)
T18 construct: purchased Eurofins (KinaseProfiler)
In short: as §1

[19] = target: T19, JAK1(h) (Homo sapiens, UniProt P23458)
T19 construct: purchased Eurofins (KinaseProfiler)
In short: as §1

[20] = target: T20, LKB1(h) (Homo sapiens, UniProt Q15831)
T20 construct: purchased Eurofins (KinaseProfiler)
In short: as §1

[21] = target: T21, MEK2(h) (Homo sapiens, UniProt P36507)
T21 construct: purchased Eurofins (KinaseProfiler)
In short: as §1

[22] = target: T22, MEKK3(h) (Homo sapiens, UniProt Q99759)
T22 construct: purchased Eurofins (KinaseProfiler)
In short: as §1

[23] = target: T23, NEK9(h) (Homo sapiens, UniProt Q8TD19)
T23 construct: purchased Eurofins (KinaseProfiler)
In short: as §1

[24] = target: T24, PDGFRα(V561D)(h) (Homo sapiens, UniProt P16234, V561D)
T24 construct: purchased Eurofins (KinaseProfiler)
In short: as §1

[25] = target: PI3 Kinase (p110a(E545K)/p85a)(h) (Homo sapiens, UniProt P42336, E545K)
In short: as §1

[26] = target: T25, PI3 Kinase (p110a(E545K)/p85a)(m) (Mus musculus, UniProt P42337, E545K)
T25 construct: purchased Eurofins (KinaseProfiler)
In short: as §1

[27] = target: PI3 Kinase (p110a(H1047R)/p85a)(m) (Mus musculus, UniProt P42337, H1047R)
In short: as §1

[28] = target: T26, PKG1β(h) (Homo sapiens, UniProt Q13976)
T26 construct: purchased Eurofins (KinaseProfiler)
In short: as §1

[29] = target: T27, PTK5(h) (Homo sapiens, UniProt P42685)
T27 construct: purchased Eurofins (KinaseProfiler)
In short: as §1

[30] = target: T28, SAPK2a(h) (Homo sapiens, UniProt Q16539)
T28 construct: purchased Eurofins (KinaseProfiler)
In short: as §1

[31] = target: T29, SIK(h) (Homo sapiens, UniProt P57059)
T29 construct: purchased Eurofins (KinaseProfiler)
In short: as §1

[32] = target: T30, SNRK(h) (Homo sapiens, UniProt Q9NRH2)
T30 construct: purchased Eurofins (KinaseProfiler)
In short: as §1

[33] = target: T31, SRMS(h) (Homo sapiens, UniProt Q9H3Y6)
T31 construct: purchased Eurofins (KinaseProfiler)
In short: as §1

[34] = target: T32, TRB2(h) (Homo sapiens, UniProt Q92519)
T32 construct: purchased Eurofins (KinaseProfiler)
In short: as §1

[35] = target: T33, TrkC(h) (Homo sapiens, UniProt Q16288)
T33 construct: purchased Eurofins (KinaseProfiler)
In short: as §1

[36] = target: T34, VRK1(h) (Homo sapiens, UniProt Q99986)
T34 construct: purchased Eurofins (KinaseProfiler)
In short: as §1

[37] = target: T35, ZAP-70(h) (Homo sapiens, UniProt P43403)
T35 construct: purchased Eurofins (KinaseProfiler)
In short: as §1

[38] = target: T36, cKit(V560G)(h) (Homo sapiens, UniProt P10721, V560G)
T36 construct: purchased Eurofins (KinaseProfiler)
In short: as §1

T9 sequence (Q14012 whole entry): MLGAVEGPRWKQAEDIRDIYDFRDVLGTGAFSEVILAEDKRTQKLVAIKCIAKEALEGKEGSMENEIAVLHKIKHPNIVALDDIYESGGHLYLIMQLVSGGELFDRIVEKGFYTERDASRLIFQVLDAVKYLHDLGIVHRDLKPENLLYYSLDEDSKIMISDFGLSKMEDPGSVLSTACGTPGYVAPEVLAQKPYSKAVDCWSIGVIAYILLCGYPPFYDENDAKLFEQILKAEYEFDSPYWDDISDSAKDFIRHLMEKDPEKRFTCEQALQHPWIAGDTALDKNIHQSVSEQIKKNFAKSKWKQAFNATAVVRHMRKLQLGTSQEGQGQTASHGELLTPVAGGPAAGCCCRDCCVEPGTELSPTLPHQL
T22 sequence (Q99759 whole entry): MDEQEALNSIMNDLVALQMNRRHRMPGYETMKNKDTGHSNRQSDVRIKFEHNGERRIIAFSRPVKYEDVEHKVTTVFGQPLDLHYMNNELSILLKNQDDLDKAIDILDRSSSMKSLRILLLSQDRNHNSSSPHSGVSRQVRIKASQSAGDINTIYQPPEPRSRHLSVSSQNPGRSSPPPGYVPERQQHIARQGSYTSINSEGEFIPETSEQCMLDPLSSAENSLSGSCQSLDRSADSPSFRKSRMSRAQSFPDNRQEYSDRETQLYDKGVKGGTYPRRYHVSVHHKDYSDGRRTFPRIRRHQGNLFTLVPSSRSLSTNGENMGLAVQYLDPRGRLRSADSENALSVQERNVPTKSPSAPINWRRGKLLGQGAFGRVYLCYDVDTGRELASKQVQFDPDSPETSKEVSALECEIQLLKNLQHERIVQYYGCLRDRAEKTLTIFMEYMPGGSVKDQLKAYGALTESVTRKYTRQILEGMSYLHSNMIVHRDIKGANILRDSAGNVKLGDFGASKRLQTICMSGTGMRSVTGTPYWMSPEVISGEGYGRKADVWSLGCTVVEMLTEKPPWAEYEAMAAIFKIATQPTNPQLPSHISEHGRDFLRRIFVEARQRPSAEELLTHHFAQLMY
T6 sequence (O96017 whole entry I157T): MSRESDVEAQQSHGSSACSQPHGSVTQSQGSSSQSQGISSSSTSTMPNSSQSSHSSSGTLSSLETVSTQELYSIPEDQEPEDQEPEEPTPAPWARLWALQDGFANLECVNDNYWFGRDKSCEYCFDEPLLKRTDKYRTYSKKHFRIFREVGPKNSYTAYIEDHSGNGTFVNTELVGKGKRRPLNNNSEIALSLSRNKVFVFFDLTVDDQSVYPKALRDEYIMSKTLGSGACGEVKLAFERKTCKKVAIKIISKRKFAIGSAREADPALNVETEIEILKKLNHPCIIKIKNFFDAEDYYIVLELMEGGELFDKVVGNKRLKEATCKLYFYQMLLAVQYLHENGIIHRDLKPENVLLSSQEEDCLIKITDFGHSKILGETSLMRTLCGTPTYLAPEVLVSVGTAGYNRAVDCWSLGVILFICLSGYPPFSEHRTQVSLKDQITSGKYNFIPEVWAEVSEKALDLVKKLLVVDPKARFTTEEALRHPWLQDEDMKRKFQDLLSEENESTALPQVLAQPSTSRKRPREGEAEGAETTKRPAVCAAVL
T30 sequence (Q9NRH2 whole entry): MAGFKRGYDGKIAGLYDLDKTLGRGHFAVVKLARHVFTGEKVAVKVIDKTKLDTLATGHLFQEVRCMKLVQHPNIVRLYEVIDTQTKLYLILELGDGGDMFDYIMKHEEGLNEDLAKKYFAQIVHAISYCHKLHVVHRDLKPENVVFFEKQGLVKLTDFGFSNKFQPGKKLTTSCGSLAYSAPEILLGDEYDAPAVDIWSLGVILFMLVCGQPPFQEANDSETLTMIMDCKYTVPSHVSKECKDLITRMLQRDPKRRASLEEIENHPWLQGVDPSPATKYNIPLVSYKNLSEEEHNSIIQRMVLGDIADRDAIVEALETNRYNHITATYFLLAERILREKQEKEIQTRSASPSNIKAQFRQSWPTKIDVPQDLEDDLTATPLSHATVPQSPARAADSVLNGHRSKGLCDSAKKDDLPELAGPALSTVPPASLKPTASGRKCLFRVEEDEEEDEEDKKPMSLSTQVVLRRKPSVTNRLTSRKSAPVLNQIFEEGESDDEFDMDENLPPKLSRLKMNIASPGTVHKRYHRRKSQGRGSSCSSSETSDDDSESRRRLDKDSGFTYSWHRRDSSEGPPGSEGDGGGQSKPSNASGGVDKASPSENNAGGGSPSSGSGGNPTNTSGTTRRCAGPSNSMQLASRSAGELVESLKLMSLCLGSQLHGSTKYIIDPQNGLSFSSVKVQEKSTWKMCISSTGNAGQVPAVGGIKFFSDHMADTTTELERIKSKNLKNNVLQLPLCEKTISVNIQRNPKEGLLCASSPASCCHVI
T3 sequence (Q9NSY1 whole entry): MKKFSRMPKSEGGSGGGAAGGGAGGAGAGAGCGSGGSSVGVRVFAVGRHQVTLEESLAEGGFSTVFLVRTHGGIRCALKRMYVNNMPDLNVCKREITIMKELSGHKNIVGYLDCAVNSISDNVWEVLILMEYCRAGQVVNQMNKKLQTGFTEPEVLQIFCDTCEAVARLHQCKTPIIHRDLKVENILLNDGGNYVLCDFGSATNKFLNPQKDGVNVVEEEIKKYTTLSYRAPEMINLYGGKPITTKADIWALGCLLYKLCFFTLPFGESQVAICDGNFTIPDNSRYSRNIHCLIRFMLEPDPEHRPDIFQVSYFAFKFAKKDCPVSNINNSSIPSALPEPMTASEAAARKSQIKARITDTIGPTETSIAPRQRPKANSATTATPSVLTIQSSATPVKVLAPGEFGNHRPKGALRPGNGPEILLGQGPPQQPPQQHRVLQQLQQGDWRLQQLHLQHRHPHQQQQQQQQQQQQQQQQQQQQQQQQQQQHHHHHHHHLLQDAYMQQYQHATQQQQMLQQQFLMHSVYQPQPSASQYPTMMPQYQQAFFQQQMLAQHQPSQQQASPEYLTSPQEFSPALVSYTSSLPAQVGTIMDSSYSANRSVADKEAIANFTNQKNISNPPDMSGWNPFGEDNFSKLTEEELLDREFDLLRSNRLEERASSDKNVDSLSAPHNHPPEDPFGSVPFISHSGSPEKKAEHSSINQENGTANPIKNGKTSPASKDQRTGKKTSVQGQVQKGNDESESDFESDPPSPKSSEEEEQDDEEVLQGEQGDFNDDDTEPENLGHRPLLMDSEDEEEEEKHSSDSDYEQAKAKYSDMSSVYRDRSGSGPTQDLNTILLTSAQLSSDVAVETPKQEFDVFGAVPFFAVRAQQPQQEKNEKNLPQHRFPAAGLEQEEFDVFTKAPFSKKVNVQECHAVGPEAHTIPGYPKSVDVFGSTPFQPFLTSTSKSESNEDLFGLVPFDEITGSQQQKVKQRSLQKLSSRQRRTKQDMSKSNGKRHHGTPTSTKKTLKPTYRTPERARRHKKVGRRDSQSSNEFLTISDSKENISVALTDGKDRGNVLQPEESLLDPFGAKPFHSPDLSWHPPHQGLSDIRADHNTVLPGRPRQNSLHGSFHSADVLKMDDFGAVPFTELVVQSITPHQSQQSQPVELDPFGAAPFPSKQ
T14 sequence (Q9UIK4 whole entry): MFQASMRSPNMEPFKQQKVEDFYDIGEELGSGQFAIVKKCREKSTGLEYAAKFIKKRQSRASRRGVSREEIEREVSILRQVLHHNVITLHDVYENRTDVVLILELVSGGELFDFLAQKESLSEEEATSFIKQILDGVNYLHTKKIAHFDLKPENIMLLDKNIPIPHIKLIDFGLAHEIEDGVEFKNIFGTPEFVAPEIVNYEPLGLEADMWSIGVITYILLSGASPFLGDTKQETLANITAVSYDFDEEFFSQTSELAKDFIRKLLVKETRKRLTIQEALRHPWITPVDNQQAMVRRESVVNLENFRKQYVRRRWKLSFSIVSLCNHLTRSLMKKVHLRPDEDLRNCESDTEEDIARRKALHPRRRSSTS
T8 sequence (Q9HAZ1 whole entry): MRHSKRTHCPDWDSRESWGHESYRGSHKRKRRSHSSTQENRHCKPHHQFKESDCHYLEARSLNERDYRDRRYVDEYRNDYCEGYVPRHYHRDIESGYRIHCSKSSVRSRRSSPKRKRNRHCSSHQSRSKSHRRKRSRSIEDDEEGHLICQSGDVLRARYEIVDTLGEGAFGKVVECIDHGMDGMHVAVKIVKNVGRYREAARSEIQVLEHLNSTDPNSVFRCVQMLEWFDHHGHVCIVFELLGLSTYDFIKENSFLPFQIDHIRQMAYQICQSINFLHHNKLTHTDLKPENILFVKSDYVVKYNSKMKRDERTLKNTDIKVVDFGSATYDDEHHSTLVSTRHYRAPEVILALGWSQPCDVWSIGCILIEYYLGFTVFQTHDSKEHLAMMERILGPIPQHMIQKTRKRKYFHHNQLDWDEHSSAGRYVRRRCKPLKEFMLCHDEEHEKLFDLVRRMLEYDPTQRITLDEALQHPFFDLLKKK
T34 sequence (Q99986 whole entry): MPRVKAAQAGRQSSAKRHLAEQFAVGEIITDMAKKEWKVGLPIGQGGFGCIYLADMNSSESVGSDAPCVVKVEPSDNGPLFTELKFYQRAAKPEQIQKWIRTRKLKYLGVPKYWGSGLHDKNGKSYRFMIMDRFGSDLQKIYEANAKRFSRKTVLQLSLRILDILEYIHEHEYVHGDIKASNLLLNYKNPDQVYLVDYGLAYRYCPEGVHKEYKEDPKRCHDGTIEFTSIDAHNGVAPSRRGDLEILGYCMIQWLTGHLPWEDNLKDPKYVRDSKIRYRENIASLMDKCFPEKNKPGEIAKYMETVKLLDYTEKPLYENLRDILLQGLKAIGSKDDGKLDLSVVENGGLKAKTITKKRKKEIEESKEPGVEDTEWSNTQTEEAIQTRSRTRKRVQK
T7 sequence (O96017 whole entry): as the sequence (O96017 whole entry I157T) above, with T157I counted along it

## Cc1cc(/C=C/C#N)cc(C)c1Nc1ccnc(Nc2ccc(C#N)cc2)n1 [rilpivirine, (E)-4-((4-((4-(2-cyanoethenyl)-2,6-dimethylphenyl)amino)pyrimidin-2-yl)amino)benzonitrile]
[1]
  remaining activity at 1 µM: 84%
[2]
  remaining activity at 1 µM: 98%
[3]
  remaining activity at 1 µM: 56%
[4]
  remaining activity at 1 µM: 92%
[5]
  remaining activity at 1 µM: 58%
[6]
  remaining activity at 1 µM: 97%
[7]
  remaining activity at 1 µM: 93%
[8]
  remaining activity at 1 µM: 37%
[9]
  remaining activity at 1 µM: 92%
[10]
  remaining activity at 1 µM: 92%
[11]
  remaining activity at 1 µM: 100%
[12]
  remaining activity at 1 µM: 93%
[13]
  remaining activity at 1 µM: 83%
[14]
  remaining activity at 1 µM: 80%
[15]
  remaining activity at 1 µM: 84%
[16]
  remaining activity at 1 µM: 88%
[17]
  remaining activity at 1 µM: 97%
[18]
  remaining activity at 1 µM: 89%
[19]
  remaining activity at 1 µM: 79%
[20]
  remaining activity at 1 µM: 87%
[21]
  remaining activity at 1 µM: 92%
[22]
  remaining activity at 1 µM: 72%
[23]
  remaining activity at 1 µM: 90%
[24]
  remaining activity at 1 µM: 86%
[25]
  remaining activity at 1 µM: 98%
[26]
  remaining activity at 1 µM: 97%
[27]
  remaining activity at 1 µM: 96%
[28]
  remaining activity at 1 µM: 79%
[29]
  remaining activity at 1 µM: 32%
[30]
  remaining activity at 1 µM: 84%
[31]
  remaining activity at 1 µM: 66%
[32]
  remaining activity at 1 µM: 104%
[33]
  remaining activity at 1 µM: 55%
[34]
  remaining activity at 1 µM: 65%
[35]
  remaining activity at 1 µM: 91%
[36]
  remaining activity at 1 µM: 80%
[37]
  remaining activity at 1 µM: 97%
[38]
  remaining activity at 1 µM: 74%
